Data reported in patent publication US20240043435A1, “TYK-2 INHIBITOR” (BEIGENE, LTD., priority 2020, published 2024).

How the values were obtained:
[1] = biological target: T1, TYK2-JH2 (aa 575-869, in-house) protein (Homo sapiens, UniProt P29597); experiment: TYK2-JH2 biochemical assay (HTRF probe displacement); format: binding; settings: for Selectivity fold (TYK2/JAK1) / IC50: Biochemical assay; for Selectivity fold (TYK2/JAK1): JAK1-JH2 IC50 vs TYK2-JH2 IC50; for IC50: read-out: TYK2-JH2 IC50
T1 construct: TYK2-JH2 (aa 575-869, in-house) protein; made in house
T1 sequence (P29597 575-869): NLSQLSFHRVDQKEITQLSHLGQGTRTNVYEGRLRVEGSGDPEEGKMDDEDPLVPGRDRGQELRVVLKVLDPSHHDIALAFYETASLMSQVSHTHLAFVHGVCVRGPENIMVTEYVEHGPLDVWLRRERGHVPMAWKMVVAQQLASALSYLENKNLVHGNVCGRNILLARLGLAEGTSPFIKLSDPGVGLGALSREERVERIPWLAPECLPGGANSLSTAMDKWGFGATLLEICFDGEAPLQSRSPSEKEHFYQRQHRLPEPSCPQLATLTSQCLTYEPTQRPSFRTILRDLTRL
How it was run: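 Recombinant TYK2-JH2 (0.2 nM) was pre-incubated 0.5 h at room temperature with compounds (10 doses, 5-fold dilution; 500× DMSO stocks from 500 uM) in 20 mM HEPES pH 7.5, 10 mM MgCl2, 0.005% BSA, 2 mM DTT, 0.015% Brij-35. Probe displacement was read by HTRF (ex337, em620/665 nm); IC50 from four-parameter logistic fit.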

[2] = biological target: T2, JAK1-JH2 protein (aa 561-860, in-house) (Homo sapiens, UniProt P23458); experiment: JAK1-JH2 biochemical assay (HTRF probe displacement); format: binding
T2 construct: JAK1-JH2 protein (aa 561-860, in-house); made in house
T2 sequence (P23458 561-860): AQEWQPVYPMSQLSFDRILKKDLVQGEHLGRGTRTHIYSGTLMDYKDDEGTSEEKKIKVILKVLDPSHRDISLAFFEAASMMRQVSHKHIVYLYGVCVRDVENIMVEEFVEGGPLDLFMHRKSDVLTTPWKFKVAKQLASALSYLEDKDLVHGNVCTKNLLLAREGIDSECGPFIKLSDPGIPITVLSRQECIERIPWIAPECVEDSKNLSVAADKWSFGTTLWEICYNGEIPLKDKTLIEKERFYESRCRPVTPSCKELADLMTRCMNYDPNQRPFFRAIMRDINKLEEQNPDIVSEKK
Description: Assay B: JAK1-JH2 Biochemical Assay
Compounds disclosed herein were tested for blocking of JAK1-JH2 protein (aa 561-860, in-house) with its probe in an assay based on Homogeneous Time Resolved Fluorescence. Compound dilution is done according to the following protocol: (1) Prepare 500× compounds solution in DMSO from 500 uM by 5-fold dilution, total 10 doses were included; (2) Prepare 10× compounds solution in an assay buffer containing 20 mM HEPES, pH 7.5, 10 mM MgCl2, 0.005% BSA, 2 mM DTT, 0.015% Brij-35 by transferring 1 μl serial 500× stock solution into 49 μl assay buffer. 4 μL of 1.17 nM recombinant JAK1-JH2 protein was pre-incubated with 1 μl of 10× serial dilution of compounds at room temperature for 0.5 hour. […] The HTRF signals (ex337 nm, em620 nm/665 nm) were read on BMG PHERAstar FS instrument. The inhibition percentage of JAK1 interaction with its probe in presence of increasing concentrations of compounds was calculated based on the ratio of fluorescence at 615 nm to that at 665 nm. The IC50 for each compound was derived from fitting the data to the four-parameter logistic equation by Dotmatics.

[3] = test system: JAK2, TYK2/p-STAT4 (Tyr693) activated by IL-12 in NK-92 cell line; experiment: IL-12-JAK2, TYK2/p-STAT4 (Tyr693) inhibition IC50 cellular assay; format: cell-based; settings: for Selectivity fold (TYK2/JAK2): Cellular assay, pSTAT5/GM-CSF IC50 vs pSTAT4/IL-12 IC50; for IC50: NK92, Cellular assay, read-out: pSTAT4/IL-12 IC50
How it was run: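 NK-92 cells were starved overnight without IL-2 and preincubated 1 h at 37° C with compound (8 doses, 10000–0.61 nM, 4-fold, 0.2% DMSO). They were then stimulated with IL-12 (40 ng/ml final) for 30 min. Lysate p-STAT4 (Tyr693) was read by AlphaLISA SureFire; IC50 from four-parameter logistic fit.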

pSTAT5/GM-CSF = pSTAT5/GM-CSF cellular assay (JAK2 selectivity); format: cell-based; settings: for Selectivity fold (TYK2/JAK2): pSTAT5/GM-CSF IC50 over pSTAT4/IL-12 IC50

Structure (SMILES) | IC50 [1] | IC50 [3] | IC50 (pSTAT5/GM-CSF) | Selectivity fold (TYK2/JAK1) [1] | fold less potent (orth vs meta methylsulfonyl; B15 vs B1, B14 vs B5) ([1]; Tyk2 JH2 bio-chemical potency) | IC50 [2] | Selectivity fold (TYK2/JAK2) [3] | Selectivity fold (TYK2/JAK2) (pSTAT5/GM-CSF)
CC(=O)Nc1cc(Nc2ccccc2S(C)(=O)=O)c(-c2ccccn2)cn1 [Example B15, N-(4′-((2-(methylsulfonyl)phenyl)amino)-[2,3′-bipyridin]-6′-yl)acetamide] | 117 nM | – | – | 1 fold | 3079 fold | 234 nM | – | –
CC(=O)Nc1cc(Nc2cccc(S(C)(=O)=O)c2)c(N2CCCC2=O)cn1 [Example A7, N-(4-((3-(methylsulfonyl)phenyl)amino)-5-(2-oxopyrrolidin-1-yl)pyridin-2-yl)acetamide] | 670 nM | – | – | >14 fold | – | > 10000 nM | – | –
COCc1ccc(-c2cnc(NC(C)=O)cc2Nc2cc(OC)cc(S(C)(=O)=O)n2)nc1 [Example E7, N-(4′-((4-methoxy-6-(methylsulfonyl)pyridin-2-yl)amino)-5-(methoxymethyl)-[2,3′-bipyridin]-6′-yl)acetamide] | 0.02 nM | 0.447 nM | > 10000 nM | – | – | – | >22371 fold | –
COCCn1ccc(-c2cnc(NC(C)=O)cc2Nc2cc(C)cc(S(C)(=O)=O)n2)n1 [Example A15, N-(5-(1-(2-methoxyethyl)-1H-pyrazol-3-yl)-4-((4-methyl-6-(methylsulfonyl)pyridin-2-yl)amino)pyridin-2-yl)acetamide] | 0.04 nM | 0.687 nM | 3460 nM | – | – | – | 5039 fold | –
COCc1ccc(-c2cnc(NC(C)=O)cc2Nc2cc(OCCO)cc(S(C)(=O)=O)n2)nc1 [Example E6, N-(4′-((4-(2-hydroxyethoxy)-6-(methylsulfonyl)pyridin-2-yl)amino)-5-(methoxymethyl)-[2,3′-bipyridin]-6′-yl)acetamide] | 0.029 nM | 2.72 nM | > 10000 nM | – | – | – | >3676 fold | –
CC(=O)Nc1cc(Nc2cc(OCC3COC3)cc(S(C)(=O)=O)n2)c(-c2ccc(C(C)(C)O)cn2)cn1 [Example H12, N-(5-(2-hydroxypropan-2-yl)-4′-((6-(methylsulfonyl)-4-(oxetan-3-ylmethoxy)pyridin-2-yl)amino)-[2,3′-bipyridin]-6′-yl)acetamide] | 0.022 nM | 5.1 nM | > 10000 nM | – | – | – | >1960 fold | –
CC(=O)Nc1cc(Nc2cc(O[C@H]3C[C@H](O)C3)cc(S(C)(=O)=O)n2)c(-c2ccn(C)n2)cn1 [Example J16, N-(4-((4-((trans)-3-hydroxycyclobutoxy)-6-(methylsulfonyl)pyridin-2-yl)amino)-5-(1-methyl-1H-pyrazol-3-yl)pyridin-2-yl)acetamde] | 0.015 nM | 2.52 nM | > 10000 nM | – | – | – | – | >3968 fold
CC(=O)Nc1cc(Nc2cccc(S(C)(=O)=O)c2)c(-c2ccc(N3C[C@@H](C)O[C@@H](C)C3)cn2)cn1 [Example C3, N-(5-((cis)-2,6-dimethylmorpholino)-4′-((3-(methylsulfonyl)phenyl)amino)-[2,3′-bipyridin]-6′-yl)acetamide] | 0.032 nM | 5.81 nM | > 10000 nM | – | – | – | >1721 fold | –
CC(=O)Nc1cc(Nc2cc(OCCO)cc(S(C)(=O)=O)n2)c(-c2ccc(OC3CCOC3)cn2)cn1 (stereo not shown) [Example B22, N-(4′-((4-(2-hydroxyethoxy)-6-(methylsulfonyl)pyridin-2-yl)amino)-5-((tetrahydrofuran-3-yl)oxy)-[2,3′-bipyridin]-6′-yl)acetamide] | 0.025 nM | 12.6 nM | 2490 nM | – | – | – | 197 fold | –
COc1cc(S(C)(=O)=O)nc(Nc2cc(NC(C)=O)ncc2-c2ccc(F)cn2)c1OC [Example F23, N-(4′-((3,4-dimethoxy-6-(methylsulfonyl)pyridin-2-yl)amino)-5-fluoro-[2,3′-bipyridin]-6′-yl)acetamide] | 0.02 nM | 1.07 nM | > 10000 nM | – | – | – | >9345 fold | –
CC(=O)Nc1cc(Nc2cc(C#N)cc(S(C)(=O)=O)n2)c(-c2ccc(C(C)(C)O)cn2)cn1 [Example H14, N-(4′-((4-cyano-6-(methylsulfonyl)pyridin-2-yl)amino)-5-(2-hydroxypropan-2-yl)-[2,3′-bipyridin]-6′-yl)acetamide] | 0.034 nM | 0.727 nM | > 10000 nM | – | – | – | >13755 fold | –

Continued, in another order:

IC50 [1] | IC50 [3] | IC50 (pSTAT5/GM-CSF) | Structure (SMILES) | Selectivity fold (TYK2/JAK1) [1] | fold less potent (orth vs meta methylsulfonyl; B15 vs B1, B14 vs B5) ([1]; Tyk2 JH2 bio-chemical potency) | IC50 [2] | Selectivity fold (TYK2/JAK2) [3] | Selectivity fold (TYK2/JAK2) (pSTAT5/GM-CSF)
0.02 nM | 0.679 nM | 1810 nM | CC(=O)Nc1cc(Nc2cc(N3CCOC[C@@H]3C)cc(S(C)(=O)=O)n2)c(-c2ccc3c(n2)OCC(C)(C)O3)cn1 [Example Q35, (S)—N-(5-(2,2-dimethyl-2,3-dihydro-[1,4]dioxino[2,3-b]pyridin-6-yl)-4-((4-(3-methyl-morpholino)-6-(methylsulfonyl)pyridin-2-yl)amino)-pyridin-2-yl)acetamide] | – | – | – | – | 2665 fold
0.019 nM | 1.42 nM | > 10000 nM | CC(=O)Nc1cc(Nc2cc(C3CCOCC3)cc(S(C)(=O)=O)n2)c(-c2ccn(C)n2)cn1 [Example J61, N-(5-(1-methyl-1H-pyrazol-3-yl)-4-((6-(methylsulfonyl)-4-(tetrahydro-2H-pyran-4-yl)pyridin-2-yl)amino)pyridin-2-yl)acetamide] | – | – | – | – | >7042 fold
0.026 nM | 0.537 nM | > 10000 nM | CCn1ccc(-c2cnc(NC(C)=O)cc2Nc2cc(COC)cc(S(C)(=O)=O)n2)n1 [Example M7, N-(5-(1-ethyl-1H-pyrazol-3-yl)-4-((4-(methoxymethyl)-6-(methylsulfonyl)pyridin-2-yl)amino)pyridin-2-yl)acetamide] | – | – | – | – | >18621 fold
0.028 nM | 2.03 nM | > 10000 nM | CC(=O)Nc1cc(Nc2ccc(F)c(S(C)(=O)=O)n2)c(-c2ccn(C)n2)cn1 [Example J54, N-(4-((5-fluoro-6-(methylsulfonyl)pyridin-2-yl)amino)-5-(1-methyl-1H-pyrazol-3-yl)pyridin-2-yl)acetamide] | – | – | – | – | >4926 fold
0.03 nM | 0.904 nM | 373 nM | COc1ccncc1-c1cc(Nc2cc(NC(C)=O)ncc2-c2ccc3c(n2)OCC(C)(C)O3)nc(S(C)(=O)=O)c1 [Example Q101, N-(5-(2,2-dimethyl-2,3-dihydro-[1,4]dioxino[2,3-b]pyridin-6-yl)-4-((4-methoxy-6′-(methylsulfonyl)-[3,4′-bipyridin]-2′-yl)amino)pyridin-2-yl)acetamide] | – | – | – | – | 412 fold
0.033 nM | 7.94 nM | > 10000 nM | CC(=O)Nc1cc(Nc2cccc(S(C)(=O)=O)c2)c(-c2ccn(C)n2)cn1 [Example J6, N-(5-(1-methyl-1H-pyrazol-3-yl)-4-((3-(methylsulfonyl)phenyl)amino)pyridin-2-yl)acetamide] | – | – | – | – | >1259 fold
0.037 nM | 0.411 nM | 1570 nM | CC(=O)Nc1cc(Nc2cc(C)cc(S(C)(=O)=O)n2)c(-c2ccc3c(n2)OCC(C)(C)O3)cn1 [Example Q21, N-(5-(2,2-dimethyl-2,3-dihydro-[1,4]dioxino[2,3-b]pyridin-6-yl)-4-((4-methyl-6-(methylsulfonyl)pyridin-2-yl)amino)pyridin-2-yl)acetamide] | – | – | – | – | 3824 fold
0.037 nM | 1.1 nM | > 10000 nM | CC(=O)Nc1cc(Nc2cc(OC(C)C)cc(S(C)(=O)=O)n2)c(-c2cc3c(cn2)NCCO3)cn1 [Example Q4, N-(5-(3,4-dihydro-2H-pyrido[4,3-b][1,4]oxazin-7-yl)-4-((4-isopropoxy-6-(methylsulfonyl)pyridin-yl)amino)pyridin-2-yl)acetamide] | – | – | – | – | >9090 fold
0.048 nM | 10.2 nM | > 10000 nM | CCn1ccc(-c2cnc(NC(C)=O)cc2Nc2cc(OCCO)cc(S(C)(=O)=O)c2)n1 [Example M15, N-(5-(1-ethyl-1H-pyrazol-3-yl)-4-((3-(2-hydroxyethoxy)-5-(methylsulfonyl)phenyl)amino)pyridin-2-yl)acetamide] | – | – | – | – | >977 fold
